Consider one compound from article PMC7703437, “In Vitro Hepatic Metabolism of Curcumin Diethyl Disuccinate by Liver S9 from Different Animal Species” (Frontiers in Pharmacology, 2020).

Series [1] is described as follows: In vitro metabolism profiling of CDD in monkey liver S9 (1 mg/ml). Format: in vitro ADME, monkey (cynomolgus). The following applies: liver S9; monkey LS9 1 mg/ml; read-out: t 1/2 (CDD). How it is done: (§1) The metabolism profiles of CDD were investigated against HLS9, MLS9, DLS9, and RLS9. A stock solution of CDD was prepared at 150 µM in 50% acetonitrile in water before use. The metabolism study was initiated by spiking 735 µl of preincubated LS9 with 15 µl of CDD stock solution, and the mixture was subsequently incubated at 37°C. The final concentrations of CDD and LS9 were 3 μM and 1 mg/ml, respectively. A 50-µl aliquot from the mixture was collected at 0.5, 1, 2, 3, 4, 5, 10, 15, 30, 45, 60, 90, and 120 min and immediately mixed with 100 µl of ice-cold acetonitrile containing 0.45 µM of internal standard DMC to terminate the metabolic reaction. […] The sample at the initial time point (0 min) was prepared as the other samples, except that heat-inactivated HLS9, MLS9, DLS9, and RLS9 (80°C for 20 min; 1 mg/ml protein) were used.
(§2) The UHPLC system consisted of an Agilent series 1290 quaternary pump with an online degasser, autosampler, column oven, and diode array detector. The mobile phase was composed of (A) 0.1% (v/v) formic acid in acetonitrile and (B) 0.1% (v/v) formic acid in water. Each solution was filtered through a nylon filter (pore size, 0.22 µm; MS® Membrane Filters; Membrane Solutions, United States) before use. The mobile phase flow rate was kept at 1.2 ml/min in a gradient mode using the following elution program: 0–3.0 min, initial A-B (40:60, v/v); 4.5–7.0 min, isocratic elution A-B [50:50, (v/v); 8.5–11.0 min, isocratic elution A-B (60:40, v/v); and 12.0–17.0 min, isocratic elution A-B (40:60, v/v)]. CDD, curcumin, and MSCUR in the supernatant were partitioned using a C8 column (4.6 mm × 50 mm, 2.7 µm; HALO, Advanced Materials Technology, United States) with reference to DMC. The detection wavelength was set at 400 nm (λ max(CDD) = 400 nm, λ max(curcumin) = 427 nm, λ max(MSCUR) = 418 nm, and λ max(DMC) = 421 nm). The column was maintained at 35°C throughout the run, and the supernatant injection volume was set at 20 µl.
(§3) The concentrations of CDD, curcumin, and MSCUR in the supernatant were determined from the standard plots, which were prepared by spiking individual working solutions of the compounds to heat-inactivated HLS9, MLS9, DLS9, and RLS9 ([Alcorn et al., 2007]; [Montoro-Garcia et al., 2009]; [Singh et al., 2010]). These working standards were extracted with 100 µl of ice-cold acetonitrile containing 0.45 µM of DMC and then 120 μl of the supernatant was diluted with 40 μl of water prior to the UHPLC analysis. The peak area ratios of CDD, curcumin, and MSCUR to the internal standard were computed against linear concentration ranges of 0.025–4.5 µM CDD, 0.025–4.5 µM curcumin, and 0.0125–0.75 µM MSCUR, respectively, with the coefficient of determination (r^2) values greater than 0.99.
(§4) The percent content of CDD and the metabolites formed upon its incubation with LS9, namely, curcumin and MSCUR, was plotted against incubation time.
(§5) The following equations were adopted to describe the changes in CDD and MSCUR content over time (t): A = A0e^−k1t (2) B= k1A0/k2−k1(e^−k1t−e^−k2t), (3) where A0 is the CDD concentration at time 0, k 1 is the degradation rate constant of CDD, and k 2 is the degradation rate constant of MSCUR. k 1 and k 2 were determined by using Eqs. 2 and 3, respectively, with nonlinear regression analysis using the SOLVER function of Microsoft Excel for Office 365 MSO (16.0.12527.20986) ([Brown, 2001]). The half-life (t 1/2) was calculated using Eq. 4: t1/2=0.693/k (4)
(§6) The in vitro intrinsic clearance (CLint,in vitro) of CDD and MSCUR in LS9 was calculated using Eq. 5: CLint, in vitro= k × [V]incubation(ml)/[P]incubation(mg protein), (5) where [V]incubation is the incubation volume in ml, and [P]incubation is the amount of LS9. […]

Series [2] deals with monkey LS9 (MLS9; cynomolgus). The series is described as above. Format: in vitro ADME. How it is done:
as §1, §2, §3, §4, §5, §6

On the set-up of series [3]: method as in Muangnoi et al., 2019b. As to conditions: ref Muangnoi et al., 2019b; cited from earlier work.
Series [4] has as its system human LS9 (HLS9; pooled). The experiment in a line: In vitro metabolism profiling of CDD in human liver S9 (1 mg/ml). Type of series: in vitro ADME. The protocol: as §1, §2, §3, §4, §5, §6

As a reminder, the log P is a log measure of how a compound divides between an organic and an aqueous phase.

In the case of `CCOC(=O)CCC(=O)Oc1ccc(/C=C/C(=O)/C=C(O)/C=C/c2ccc(OC(=O)CCC(=O)OCC)c(OC)c2)cc1OC` [CDD, curcumin diethyl disuccinate], in series [1], the half-life at 3 µM came to 52.2 ± 7.8 s. Besides, the entries for the “CLint, in vitro(CDD)” value in series [2] (monkey LS9) and in series [4] (human LS9) were 0.81 ± 0.13 ml min^−1 mg protein^−1 and 1.51 ± 0.22 ml min^−1 mg protein^−1, respectively. The “k 1 (CDD)” value in series [2] (monkey LS9 1 mg/ml, CDD 3 µM, 37°C) was 0.81 ± 0.13 min⁻¹; in series [4] (human LS9 1 mg/ml, CDD 3 µM, 37°C) it was 1.51 ± 0.22 min⁻¹. For the same compound, the “CLint, in vivo(CDD)” value is 176.96 ± 27.49 L/h/kg in series [2] (monkey, scaled from CLint,in vitro with physiologically based scaling factors) and 282.18 ± 41.74 L/h/kg in series [4] (human, scaled from CLint,in vitro with physiologically based scaling factors). The “CLint, in vivo total” value was 4,704.26 ± 695.64 L h^−1 kg^−1 in series [2] (monkey, sum of CLint,in vivo(CDD) and CLint,in vivo(MSCUR)); 2,533.38 ± 124.30 L h^−1 kg^−1 in series [4] (human, sum of CLint,in vivo(CDD) and CLint,in vivo(MSCUR)). Also, the “CLH (predicted hepatic clearance)” value was 2.61 ± 3.87 × 10^–3 L h^−1 kg^−1 in series [2] (monkey, well-stirred model, QH 44 ml min^−1 kg^−1, fup 0.0594) and 1.19 ± 4.61 × 10^–4 L h^−1 kg^−1 in series [4] (human, well-stirred model, QH 20 ml min^−1 kg^−1, fup 0.0594). In addition, the “log P” value in series [3] is recorded as 2.55. Moreover, the “CLint, in vitro(CDD) in HLS9 higher than in DLS9” value in series [4] (HLS9 vs DLS9) amounted to 1.8 fold. Moreover, in series [4] (HLS9 vs MLS9), the “CLint, in vitro(CDD) in HLS9 higher than in MLS9” value is given as 1.9 fold. In series [4] (HLS9 vs RLS9), the “CLint, in vitro(CDD) in HLS9 higher than in RLS9” value worked out at 2.2 fold.
